Assay [1] deals with primary human T-cells.
Assay [2] concerns primary human T-cells. In words: Proliferation assay after 5 days (CellTiter-Glo, CD3 stimulation; PBS counter screen). Format: cell-based. The following applies: CD3 stimulation; for Emax: read-out: Emax proliferation (% activation); for EC50: primary human T-cells, CellTiter-Glo after 5 days, EC50 of fitted sigmoidal curve, read-out: Tcell Proliferation CD3 EC50. The essentials: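 After compound addition to medium-only plates, cells are cultured 5 days, equilibrated to room temperature, mixed with an equal volume of CellTiter-Glo 2.0 and rocked 15 min before luminescence is read. Signal reflects ATP content, taken as proportional to cell number.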

Setting [3] is: Homo sapiens, T-cell, 120 h, 5 days, normalized to reference compound A1 as stimulator control = 100%, DMSO neutral control.

The structures appear in SMILES notation. Where two headings read alike, the source gives them in different places.

On to `Cc1nnc(-c2nnc(-c3cc4c(cc3F)S(=O)(=O)C[C@H](N)C(=O)N4Cc3ccc(OC(F)(F)F)cc3)o2)o1` [Example 60, (3R)-3-amino-8-fluoro-7-[5-(5-methyl-1,3,4-oxadiazol-2-yl)-1,3,4-oxadiazol-2-yl]-1,1-dioxo-5-[[4-(trifluoromethoxy)phenyl]methyl]-2,3-dihydro-1λ^6,5-benzothiazepin-4-one], for which the EC50 in assay [1] stood at 535 nM; in assay [2] (Homo sapiens, T-cell, 120 h), 320 nM. Besides, the Emax in assay [2] (setting [3]) is 110%.

As to `COC(=O)N1CC2CC(c3nc(-c4cc5c(cc4F)S(=O)(=O)C[C@H](N)C(=O)N5Cc4ccc(OC(F)(F)C(F)F)cc4)no3)(C2)C1` [Example 512, methyl 1-[3-[(3R)-3-amino-8-fluoro-1,1,4-trioxo-5-[[4-(1,1,2,2-tetrafluoroethoxy)phenyl]methyl]-2,3-dihydro-1λ^6,5-benzothiazepin-7-yl]-1,2,4-oxadiazol-5-yl]-3-azabicyclo[3.1.1]heptane-3-carboxylate], the EC50 in assay [1] worked out at 993 nM. For the same molecule, the Emax in assay [2] (setting [3]) was determined as 162%.

Take `CS(=O)(=O)N1CC(n2nnc(-c3cc4c(cc3F)S(=O)(=O)C[C@H](N)C(=O)N4Cc3ccc(Cl)cc3)n2)CC(F)(F)C1` (stereo partly drawn) [Example 23, (3R)-3-amino-5-[(4-chlorophenyl)methyl]-7-[2-(5,5-difluoro-1-methylsulfonyl-3-piperidyl)tetrazol-5-yl]-8-fluoro-1,1-dioxo-2,3-dihydro-1λ^6,5-benzothiazepin-4-one]: the EC50 in assay [1] came out at 3790 nM; in assay [2] (Homo sapiens, T-cell, 120 h), 588 nM. Moreover, the Emax in assay [2] (setting [3]) was found to be 161%.

With `COCC1(Nc2nnc(-c3ccc4c(c3)N(Cc3ccc(Cl)cc3)C(=O)[C@@H](N)CS4(=O)=O)o2)CC(F)(F)C1` [Example 403, (3R)-3-amino-5-[(4-chlorophenyl)methyl]-7-[5-[[3,3-difluoro-1-(methoxymethyl)cyclobutyl]amino]-1,3,4-oxadiazol-2-yl]-1,1-dioxo-2,3-dihydro-1λ^6,5-benzothiazepin-4-one], the EC50 was 3680 nM in assay [1] and 1150 nM in assay [2] (Homo sapiens, T-cell, 120 h). Moreover, the Emax in assay [2] (setting [3]) was 83%.

On to `CN1CC[C@@H](n2nnc(-c3cc4c(cc3F)S(=O)(=O)C[C@H](N)C(=O)N4Cc3ccc(Cl)cc3)n2)C1` [Example 10, (3R)-3-amino-5-[(4-chlorophenyl)methyl]-8-fluoro-1,1-dioxo-7-[2-[(3R)-1-methylpyrrolidin-3-yl]tetrazol-5-yl]-2,3-dihydro-1λ^6,5-benzothiazepin-4-one], for which the EC50 amounted to 3100 nM in assay [1] and 4040 nM in assay [2] (Homo sapiens, T-cell, 120 h). In addition, the Emax in assay [2] (setting [3]) came out at 78%.

In the case of `C#CCC(C)(C)c1nnc(-c2cc3c(cc2F)S(=O)(=O)C[C@H](N)C(=O)N3Cc2ccc(C3(C(F)(F)F)N=N3)cc2)o1` [Example 359, (3R)-3-amino-7-[5-(1,1-dimethylbut-3-ynyl)-1,3,4-oxadiazol-2-yl]-8-fluoro-1,1-dioxo-5-[[4-[3-(trifluoromethyl)diazirin-3-yl]phenyl]methyl]-2,3-dihydro-1λ^6,5-benzothiazepin-4-one], the EC50 in assay [1] was determined as 208 nM; in assay [2] (Homo sapiens, T-cell, 120 h), 81.7 nM. In addition, the Emax in assay [2] (setting [3]) was determined as 115%.

Take `CC(Nc1nnc(-c2cc3c(cc2F)S(=O)(=O)C[C@H](N)C(=O)N3Cc2ccc(Cl)cc2)o1)C1CC(F)(F)C1` (stereo partly drawn) [Example 493, (3R)-3-amino-5-[(4-chlorophenyl)methyl]-7-[5-[1-(3,3-difluorocyclobutyl)ethylamino]-1,3,4-oxadiazol-2-yl]-8-fluoro-1,1-dioxo-2,3-dihydro-1λ^6,5-benzothiazepin-4-one]: the EC50 in assay [1] was 1280 nM; in assay [2] (Homo sapiens, T-cell, 120 h), 982 nM. The Emax in assay [2] (setting [3]) worked out at 102%.

With `CC(C)(C)n1nnc(-c2cc3c(cc2F)[S+]([O-])C[C@H](N)C(=O)N3Cc2ccc(Cl)cc2)n1` (stereo partly drawn) [Example 34, (3R)-3-amino-7-(2-tert-butyltetrazol-5-yl)-5-[(4-chlorophenyl)methyl]-8-fluoro-1-oxo-2,3-dihydro-1λ^4,5-benzothiazepin-4-one], the EC50 in assay [1] is 5870 nM; in assay [2] it was 2800 nM. Also, the “Emax proliferation (% activation)” value in assay [2] (5 days, normalized to reference compound A1 as stimulator control = 100%, DMSO neutral control) is on record as 100 % activation.

On to `N[C@H]1CS(=O)(=O)c2cc(F)c(-c3nnc(NC45CC(F)(C4)C5)o3)cc2N(Cc2ccc(Cl)cc2)C1=O` [Example 499, (3R)-3-amino-5-[(4-chlorophenyl)methyl]-8-fluoro-7-[5-[(3-fluoro-1-bicyclo[1.1.1]pentanyl)amino]-1,3,4-oxadiazol-2-yl]-1,1-dioxo-2,3-dihydro-1λ^6,5-benzothiazepin-4-one], for which the EC50 is 2230 nM in assay [1] and 768 nM in assay [2] (Homo sapiens, T-cell, 120 h). The Emax in assay [2] (setting [3]) turned out to be 68%.

Turning to `CC1(c2nnc(-c3cc4c(cc3F)S(=O)(=O)C[C@H](N)C(=O)N4Cc3ccc(Cl)cc3)o2)CC1` [Example 113, (3R)-3-amino-5-[(4-chlorophenyl)methyl]-8-fluoro-7-[5-(1-methylcyclopropyl)-1,3,4-oxadiazol-2-yl]-1,1-dioxo-2,3-dihydro-1λ^6,5-benzothiazepin-4-one], the EC50 in assay [1] came to 100 nM; in assay [2] (Homo sapiens, T-cell, 120 h) it was 107 nM. The Emax in assay [2] (setting [3]) came out at 106%.

Consider `CC(C#N)c1nnc(-c2ccc3c(c2)N(Cc2ccc(Cl)cc2)C(=O)[C@@H](N)CS3(=O)=O)o1` (stereo partly drawn) [Example 367, 2-[5-[(3R)-3-amino-5-[(4-chlorophenyl)methyl]-1,1,4-trioxo-2,3-dihydro-1λ^6,5-benzothiazepin-7-yl]-1,3,4-oxadiazol-2-yl]propanenitrile], for which the EC50 in assay [1] worked out at 576 nM; in assay [2] (Homo sapiens, T-cell, 120 h), 3690 nM. The Emax in assay [2] (setting [3]) was 87%.

Turning to `CC1(C)CN(c2nnc(-c3ccc4c(c3)N(Cc3ccc(Cl)cc3)C(=O)[C@@H](N)CS4(=O)=O)o2)CCO1` [Example 395, (3R)-3-amino-5-[(4-chlorophenyl)methyl]-7-[5-(2,2-dimethylmorpholin-4-yl)-1,3,4-oxadiazol-2-yl]-1,1-dioxo-2,3-dihydro-1λ^6,5-benzothiazepin-4-one], the EC50 in assay [1] came to 1120 nM; in assay [2] (Homo sapiens, T-cell, 120 h), 517 nM. The Emax in assay [2] (setting [3]) came to 88%.

In the case of `N[C@H]1CS(=O)(=O)c2ccc(-c3nnc(N4CC5(CCCO5)C4)o3)cc2N(Cc2ccc(Cl)cc2)C1=O` [Example 404, (3R)-3-amino-5-[(4-chlorophenyl)methyl]-7-[5-(5-oxa-2-azaspiro[3.4]octan-2-yl)-1,3,4-oxadiazol-2-yl]-1,1-dioxo-2,3-dihydro-1λ^6,5-benzothiazepin-4-one], the EC50 was 8110 nM in assay [1] and 2350 nM in assay [2] (Homo sapiens, T-cell, 120 h). In assay [2] (setting [3]), the Emax turned out to be 101%.

Take `CCN1CCCC(Nc2nnc(-c3cc4c(cc3F)S(=O)(=O)C[C@H](N)C(=O)N4Cc3ccc(Cl)cc3)o2)C1` (stereo partly drawn) [Example 457, (3R)-3-amino-5-[(4-chlorophenyl)methyl]-7-[5-[(1-ethyl-3-piperidyl)amino]-1,3,4-oxadiazol-2-yl]-8-fluoro-1,1-dioxo-2,3-dihydro-1λ^6,5-benzothiazepin-4-one]: the EC50 in assay [1] is 4880 nM; in assay [2] (Homo sapiens, T-cell, 120 h), 1140 nM. Further, the Emax in assay [2] (setting [3]) was 50%.

Regarding `CN1CCN(c2nnc(-c3cc4c(cc3F)S(=O)(=O)C[C@H](N)C(=O)N4Cc3ccc(Cl)cc3)o2)CC1` [Example 470, (3R)-3-amino-5-[(4-chlorophenyl)methyl]-8-fluoro-7-[5-(4-methylpiperazin-1-yl)-1,3,4-oxadiazol-2-yl]-1,1-dioxo-2,3-dihydro-1λ^6,5-benzothiazepin-4-one], the EC50 in assay [1] stood at 551 nM; in assay [2] (Homo sapiens, T-cell, 120 h) it was 1410 nM. Further, the Emax in assay [2] (setting [3]) is 101%.

Take `CC1(C)CN(c2nnc(-c3cc4c(cc3F)S(=O)(=O)C[C@H](N)C(=O)N4Cc3ccc(Cl)cc3)o2)CCO1` [Example 473, (3R)-3-amino-5-[(4-chlorophenyl)methyl]-7-[5-(2,2-dimethylmorpholin-4-yl)-1,3,4-oxadiazol-2-yl]-8-fluoro-1,1-dioxo-2,3-dihydro-1λ^6,5-benzothiazepin-4-one]: the EC50 turned out to be 2610 nM in assay [1] and 403 nM in assay [2] (Homo sapiens, T-cell, 120 h). Also, the Emax in assay [2] (setting [3]) is 126%.

As to `CC(C)(C)c1nnc(-c2cc3c(cc2F)S(=O)(=O)C[C@H](N)C(=O)N3Cc2ccc(F)c(F)c2)o1` [Example 246, (3R)-3-amino-7-(5-tert-butyl-1,3,4-oxadiazol-2-yl)-5-[(3,4-difluorophenyl)methyl]-8-fluoro-1,1-dioxo-2,3-dihydro-1λ^6,5-benzothiazepin-4-one], the EC50 in assay [1] stood at 342 nM; in assay [2] (Homo sapiens, T-cell, 120 h) it was 442 nM. Further, the Emax in assay [2] (setting [3]) was determined as 110%.

Turning to `CN1CC(n2nnc(-c3cc4c(cc3F)S(=O)(=O)C[C@H](N)C(=O)N4Cc3ccc(Cl)cc3)n2)CC(F)(F)C1` (stereo partly drawn) [Example 21, (3R)-3-amino-5-[(4-chlorophenyl)methyl]-7-[2-(5,5-difluoro-1-methyl-3-piperidyl)tetrazol-5-yl]-8-fluoro-1,1-dioxo-2,3-dihydro-1λ^6,5-benzothiazepin-4-one], the EC50 in assay [1] was determined as 666 nM; in assay [2] (Homo sapiens, T-cell, 120 h), 293 nM. Besides, the Emax in assay [2] (setting [3]) worked out at 127%.

With `N[C@H]1CS(=O)(=O)c2cc(F)c(-c3nnc(C(=O)N4CCC(F)(F)C4)o3)cc2N(Cc2ccc(Cl)cc2)C1=O` [Example 117, (3R)-3-amino-5-[(4-chlorophenyl)methyl]-7-[5-(3,3-difluoropyrrolidine-1-carbonyl)-1,3,4-oxadiazol-2-yl]-8-fluoro-1,1-dioxo-2,3-dihydro-1λ^6,5-benzothiazepin-4-one], the EC50 in assay [1] turned out to be 3570 nM; in assay [2] (Homo sapiens, T-cell, 120 h) it was 5020 nM. For the same molecule, the Emax in assay [2] (setting [3]) amounted to 68%.

Turning to `CC(C)(C)n1nc(-c2cc3c(cc2F)S(=O)(=O)C[C@H](N)C(=O)N3Cc2ccc(Cl)cc2)oc1=O` [Example 510, 3-tert-butyl-5-[(3R)-3-amino-5-[(4-chlorophenyl)methyl]-8-fluoro-1,1,4-trioxo-2,3-dihydro-1λ^6,5-benzothiazepin-7-yl]-1,3,4-oxadiazol-2-one], the EC50 in assay [1] was 91.7 nM; in assay [2] (Homo sapiens, T-cell, 120 h), 403 nM. Further, the Emax in assay [2] (setting [3]) was 129%.
